Measurements reported in patent US20240165281A1, “DUAL MODE RADIOTRACER AND THERAPEUTICS” (Technische Universität München, priority 2021, published 2024).
Like-named read-outs stand apart in the source and are kept apart here.

Assays:
[1] = tested on: LNCaP tumor-bearing male CB-17 SCID mice; assay: Biodistribution studies 24 h p.i.; details: for In vivo biodistribution (24 h p.i.) blood / In vivo biodistribution (24 h p.i.) kidney / In vivo biodistribution (24 h p.i.) tumor: Table 6; for uptake in adrenals / uptake in blood / uptake in bone / uptake in heart / uptake in intestine / uptake in kidney / uptake in liver / uptake in lung / uptake in muscle / uptake in pancreas / uptake in parotid gl. / uptake in spleen / uptake in stomach / uptake in submand. gl. / uptake in tumor: mean
Protocol: Approximately 3-7 MBq (0.1-0.2 nmol) of the radioactive-labelled PSMA inhibitors were injected into the tail vein of LNCaP tumor-bearing male CB-17 SCID mice and sacrificed after 24 h post injection. Selected organs were removed, weighted and measured in a γ-counter. Results are all decay corrected and given in % injected dose per gram of tissue (% iD/g). Tumor-to-organ ratios are calculated from animals' individual ratios and are given as mean±standard deviation.

[2] = Apparent molecular weight (MWapp)
[3] = Octanol-water partition coefficient (log D7.4); type: physicochemical; details: PBS pH 7.4 / n-octanol, 177Lu-labelled
Protocol: Octanol-Water Partition Coefficient (log D7.4)
Approximately 1 MBq of the labelled tracer was dissolved in 1 mL of a 1:1 mixture (v/v) of PBS (pH 7.4) and n-octanol in a reaction vial (1.5 mL). After vigorous mixing of the suspension for 3 minutes at room temperature, the vial was centrifuged at 15000 g for 3 minutes (Biofuge 15, Heraus Sepatech, Osterode, Germany) and 100 μL aliquots of both layers were measured in a gamma counter. The experiment was repeated at least six times.

LNCaP cells = assay: Internalization studies in LNCaP cells; type: cell-based; details: 37° C., 60 min
Protocol: PSMA-positive LNCAP cells (300265; Cell Lines Service, Eppelheim, Germany) were cultivated in Dulbecco modified Eagle medium/Nutrition Mixture F-12 with Glutamax (1:1) (DMEM-F12, Biochrom, Berlin, Germany) supplemented with fetal bovine serum (10%, FBS Zellkultur, Berlin, Germany) and kept at 37° C. in a humidified CO2 atmosphere (5%). A mixture of trypsin and EDTA (0.05%, 0.02%) in PBS (Biochrom) was used in order to harvest cells. Cells were counted with a Neubauer hemocytometer (Paul Marienfeld, Lauda-Königshofen, Germany).
For internalization studies, LNCaP cells were harvested 24±2 hours before the experiment and seeded in poly-L-lysine coated 24-well plates (1.25×10^5 cells in 1 mL/well, Greiner Bio-One, Kremsmünster, Austria). After removal of the culture medium, the cells were washed once with 500 μL DMEM-F12 (5% BSA) and left to equilibrate for at least 15 min at 37° C. in […] DMEM-F12 (5% BSA). Each well was treated with either 25 μL of either DMEM-F12 (5% BSA, control) or 25 μL of a 100 μM PMPA (2-(Phosphonomethyl)-pentandioic acid, Tocris Bioscience, Bristol, UK) solution in PBS, for blockade. Next, 25 μL of the radioactive-labelled PSMA inhibitor (10.0 nM in DMEM-F12 (5% BSA)) was added and the cells were incubated at 37° C. for 60 min. The experiment was terminated by placing the 24-well plate on ice for 3 min and consecutive removal of the medium. Each well was carefully washed with 250 μL of ice-cold HBSS. Both fractions from the first steps, representing the amount of free radioligand, were combined. Removal of surface bound activity was accomplished by incubation of the cells with 250 μL of ice-cold PMPA (10 μM in PBS) solution for 5 min and rinsed again with another 250 μL of ice-cold PBS. The internalized activity was determined by incubation of the cells in 250 μL […] aqueous NaOH for at least 10 min. The obtained fractions were combined with those of the subsequent wash step with 250 μL 1 M aqueous NaOH. Each experiment (control and blockade) was performed in triplicate. Free, surface bound and internalized activity was quantified in a y-counter. All internalization studies were accompanied by external reference studies, using ([^125I]I-BA)KuE (c=0.2 nM), which were performed analogously. Data were corrected for non-specific binding and normalized to the specific-internalization observed for the radioiodinated reference compound.

PSMA = molecular target: T1, PSMA (Homo sapiens, UniProt Q04609); assay: PSMA affinity (IC50), competition with [125I]I-BA-KuE on LNCaP cells; type: binding; details: natLu complex, on ice 60 min
T1 construct: PSMA-positive LNCAP cells (300265; Cell Lines Service, Eppelheim, Germany); host or cells: LNCaP cells
T1 sequence (Q04609 whole entry): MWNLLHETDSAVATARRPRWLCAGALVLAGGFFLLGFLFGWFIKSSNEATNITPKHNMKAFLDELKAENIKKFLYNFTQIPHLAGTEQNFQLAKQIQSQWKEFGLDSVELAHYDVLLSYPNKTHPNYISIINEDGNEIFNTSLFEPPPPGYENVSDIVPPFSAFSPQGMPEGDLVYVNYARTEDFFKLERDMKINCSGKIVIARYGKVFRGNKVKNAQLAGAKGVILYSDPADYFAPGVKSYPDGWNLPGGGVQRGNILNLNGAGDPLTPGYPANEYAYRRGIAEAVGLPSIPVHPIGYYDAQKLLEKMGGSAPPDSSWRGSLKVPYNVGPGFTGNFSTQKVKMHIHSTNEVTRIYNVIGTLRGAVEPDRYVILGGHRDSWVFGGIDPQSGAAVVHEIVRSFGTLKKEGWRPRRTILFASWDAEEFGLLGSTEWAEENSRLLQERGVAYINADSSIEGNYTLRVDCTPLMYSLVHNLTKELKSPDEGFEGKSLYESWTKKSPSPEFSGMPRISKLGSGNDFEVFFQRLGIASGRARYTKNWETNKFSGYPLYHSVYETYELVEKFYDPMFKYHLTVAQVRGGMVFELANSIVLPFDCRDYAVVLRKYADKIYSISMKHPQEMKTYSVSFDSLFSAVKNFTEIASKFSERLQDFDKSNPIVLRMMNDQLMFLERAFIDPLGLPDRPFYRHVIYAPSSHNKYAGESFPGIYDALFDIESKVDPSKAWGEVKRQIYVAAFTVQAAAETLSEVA
Protocol: A mixture of trypsin and EDTA (0.05%, 0.02%) in PBS (Biochrom) was used in order to harvest cells. Cells were counted with a Neubauer hemocytometer (Paul Marienfeld, Lauda-Königshofen, Germany).
Affinity Determinations (IC50)
In the case of metal-complexed ligands, the crude reaction mixture was diluted analogously, without further purification. Cells were harvested 24±2 hours prior to the experiment and seeded in 24-well plates (1.5×10^5 cells in 1 mL/well). […] The media of both steps were combined in one fraction and represent the amount of free radioligand. Afterwards, the cells were lysed with 250 μL of 1 M aqueous NaOH for at least 10 min. After a washing step (250 μL of 1 M NaOH), both fractions, representing the amount of bound ligand, were united. Quantification of all collected fractions was accomplished in a γ-counter. PSMA-affinity determinations were carried out at least three times per ligand.

[4] = molecular target: T2, Human Serum Albumin (HSA) (Homo sapiens, UniProt P02768); assay: Human serum albumin (HSA) binding by high performance affinity chromatography (HPAC); type: in vitro ADME; details: Chiralpak HSA column
T2 construct: purchased Daicel H13H-2433
T2 sequence (P02768 25-609): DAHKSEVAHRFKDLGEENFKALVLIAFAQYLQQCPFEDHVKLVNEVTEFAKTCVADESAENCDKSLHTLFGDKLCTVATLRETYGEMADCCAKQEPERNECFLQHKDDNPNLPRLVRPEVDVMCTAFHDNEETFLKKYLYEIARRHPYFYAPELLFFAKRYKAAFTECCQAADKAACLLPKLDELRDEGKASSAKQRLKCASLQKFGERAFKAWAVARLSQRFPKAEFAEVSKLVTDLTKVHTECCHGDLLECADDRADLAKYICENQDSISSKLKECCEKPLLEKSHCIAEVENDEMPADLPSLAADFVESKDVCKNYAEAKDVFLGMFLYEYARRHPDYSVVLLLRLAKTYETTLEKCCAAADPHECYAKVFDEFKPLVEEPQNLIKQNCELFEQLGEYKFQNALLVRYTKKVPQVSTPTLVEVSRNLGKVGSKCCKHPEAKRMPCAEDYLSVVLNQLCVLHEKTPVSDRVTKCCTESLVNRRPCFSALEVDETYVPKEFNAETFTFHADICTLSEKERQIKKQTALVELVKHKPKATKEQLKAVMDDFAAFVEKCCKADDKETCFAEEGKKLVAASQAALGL
Protocol: Determination of Human Serum Albumin (HSA) Binding by High Performance Affinity Chromatography (HPAC)
HSA binding of the PSMA-addressing ligands was determined according to a previously published procedure via HPLC (Valko, K.; Nunhuck, S.; Bevan, C.; Abraham, M. H.; Reynolds, D. P. Journal of pharmaceutical sciences 2003, 92, 2236-2248). A Chiralpak HSA column (50×3 mm, 5 μm, H13H-2433, Daicel, Tokyo, Japan) was used at a constant flow rate of 0.5 mL/min at rt. Mobile phase A was a freshly prepared 50 mM aqueous solution of NH4OAc (pH 6.9) and mobile phase B was isopropanol (HPLC grade, VWR). The applied gradient for all experiments was 100% A (0 to 3 min), followed by 80% A (3 to 40 min). Prior to the experiment, the column was calibrated using nine reference substances with a HSA binding, known from literature, in the range of 13 to 99% (Valko, K.; Nunhuck, S.; Bevan, C.; Abraham, M. H.; Reynolds, D. P. Journal of pharmaceutical sciences 2003, 92, 2236-2248; Yamazaki, K.; Kanaoka, M. Journal of Pharmaceutical sciences 2004, 93, 1480-1494). All substances, including the examined PSMA ligands, were dissolved in a 1:1 mixture (v/v) of isopropanol and a 50 mM aqueous solution of NH4OAc (pH6.9) with a final concentration of 0.5 mg/mL. Non-linear regression was established with the OriginPro 2016G software (Northampton, United States) (FIG. 8).

Compound | In vivo biodistribution (24 h p.i.) blood [1] [% iA/g] | In vivo biodistribution (24 h p.i.) kidney [1] [% iA/g] | In vivo biodistribution (24 h p.i.) tumor [1] [% iA/g] | uptake in adrenals [1] [% iD/g] | uptake in blood [1] [% iD/g] | uptake in bone [1] [% iD/g] | uptake in heart [1] [% iD/g] | uptake in intestine [1] [% iD/g] | uptake in kidney [1] [% iD/g] | uptake in liver [1] [% iD/g] | uptake in lung [1] [% iD/g] | uptake in muscle [1] [% iD/g] | uptake in pancreas [1] [% iD/g] | uptake in parotid gl. [1] [% iD/g] | uptake in spleen [1] [% iD/g] | uptake in stomach [1] [% iD/g] | uptake in tumor [1] [% iD/g] | MWapp [2] [kDa] | logD7.4 [3] | HSA (HPAC) [4] [%] | other results
CC(C)(C)[Si](F)(c1ccc(C(=O)NCC(NC(=O)CCC(C(=O)O)N2CCN(CC(=O)O)CCN(CC(=O)O)CCN(CC(=O)O)CC2)C(=O)NC(CN)C(=O)NCCC(=O)NCCC(=O)NCCCC(NC(=O)CCC(NC(=O)NC(CCC(=O)O)C(=O)O)C(=O)O)C(=O)O)cc1)C(C)(C)C (stereo not drawn) [Compound 2C011] | 0.0042 ± 0.0019 | 2.1 ± 0.49 | 11.86 ± 0.75 | 0.1488 | 0.0042 | 0.0363 | 0.0254 | 0.2229 | 2.0983 | 0.2848 | 0.0469 | 0.0067 | 0.0264 | 0.0857 | 0.3218 | 0.0829 | 11.8594 | 18.9 | −2.88 ± 0.06 | 89.8 | uptake in submand. gl. [1]: 0.052 % iD/g; Internalization (LNCaP cells; normalized to reference): 163.2 ± 6.91 % IBA; IC50 (PSMA): 6.08 ± 0.16 nM
CC(C)(C)[Si](F)(c1ccc(C(=O)NC[C@@H](NC(=O)[C@@H](CCCNC(N)=O)NC(=O)CC[C@@H](C(=O)O)N2CCN(CC(=O)O)CCN(CC(=O)O)CCN(CC(=O)O)CC2)C(=O)NCCCCCC(=O)NCCC[C@@H](NC(=O)CC[C@H](NC(=O)N[C@@H](CCC(=O)O)C(=O)O)C(=O)O)C(=O)O)cc1)C(C)(C)C [Compound 2C014] | 0.0014 ± 0.0006 | 2.77 ± 0.84 | 16.54 ± 3.37 | 0.1473 | 0.0014 | 0.0327 | 0.0245 | 0.1006 | 2.7708 | 0.2376 | 0.0654 | 0.0107 | 0.0192 | 0.09 | 0.4296 | 0.0367 | 16.5415 | 19.2 | −3.37 ± 0.10 | 94.6 | uptake in submand. gl. [1]: 0.0555 % iD/g; Internalization (LNCaP cells; normalized to reference): 235 ± 20 % IBA; IC50 (PSMA; read-out: IC50): 3.95 ± 1.36 nM
CC(C)(C)[Si](F)(c1ccc(C(=O)NC[C@@H](NC(=O)[C@@H](CCCNC(N)=O)NC(=O)CC[C@H](C(=O)O)N2CCN(CC(=O)O)CCN(CC(=O)O)CCN(CC(=O)O)CC2)C(=O)NCCCCCC(=O)NCCC[C@@H](NC(=O)CC[C@H](NC(=O)N[C@@H](CCC(=O)O)C(=O)O)C(=O)O)C(=O)O)cc1)C(C)(C)C [Compound 2C015] | 0.0007 ± 0.0005 | 2.23 ± 1.29 | 8.98 ± 2.32 | 0.1013 | 0.0007 | 0.0223 | 0.0237 | 0.1103 | 2.2339 | 0.164 | 0.0468 | 0.0062 | 0.0212 | 0.0674 | 0.2671 | 0.036 | 8.9821 | 18.9 | −3.40 ± 0.10 | 95.0 | uptake in submand. gl. [1]: 0.0389 % iD/g; Internalization (LNCaP cells; normalized to reference): 226 ± 10 % IBA; IC50 (PSMA; read-out: IC50): 3.99 ± 0.74 nM
O=C(O)CC[C@H](NC(=O)N[C@@H](CCCCNC(=O)[C@H](Cc1ccc2ccccc2c1)NC(=O)[C@H]1CC[C@H](CNC(=O)CN2CCN(CC(=O)O)CCN(CC(=O)O)CCN(CC(=O)O)CC2)CC1)C(=O)O)C(=O)O [PSMA-617, reference compound] | – | – | – | – | – | – | – | – | – | – | – | – | – | – | – | – | – | 13.7 | −4.10 | 84.9 | Kidneys (24 h) ([1]; Table 1): 9.8 ± 2.7 % iD/g; Tumor (24 h) ([1]; Table 1): 11.6 ± 2.2 % iD/g; T/K-ratio ([1]; tumor/kidney, Table 1): 1.24 ± 0.29; Internalization (LNCaP cells; normalized to ([125I]I-BA)KuE): 203 ± 10 % IBA-KuE; IC50 (PSMA; read-out: IC50): 3.3 ± 0.2 nM
PSMA-617 [reference compound] | – | – | – | 0.1910 | 0.0056 | 0.0267 | 0.0119 | 0.1185 | 1.4421 | 0.1167 | 0.0393 | 0.0092 | 0.0106 | – | 0.0812 | 0.0201 | 7.4568 | – | – | – | tumor-to-organ ratio adrenals ([1]; n = 4, mean): 43.54; tumor-to-organ ratio blood ([1]; n = 4, mean): 1423.84; tumor-to-organ ratio bone ([1]; n = 4, mean): 471.67; tumor-to-organ ratio heart ([1]; n = 4, mean): 704.01; tumor-to-organ ratio intestine ([1]; n = 4, mean): 90.33; tumor-to-organ ratio kidney ([1]; n = 4, mean): 5.85; tumor-to-organ ratio liver ([1]; n = 4, mean): 91.22; tumor-to-organ ratio lung ([1]; n = 4, mean): 210.40; tumor-to-organ ratio muscle ([1]; n = 4, mean): 855.38; tumor-to-organ ratio pancreas ([1]; n = 4, mean): 798.52; tumor-to-organ ratio spleen ([1]; n = 4, mean): 93.28; tumor-to-organ ratio stomach ([1]; n = 4, mean): 375.80
